Laboratory results taken from US8404709B2, “Substituted 4-aryl-1,4-dihydro-1,6-naphthyridines and use thereof” (Bayer Intellectual Property GmbH, priority 2007, dated 2013).

Target: T1, human mineralocorticoid receptor (MR) (Homo sapiens, UniProt P08235)
T1 construct: expressed in transfected cells; host or cells: CHO K1
T1 sequence (P08235 734-984 limits assumed): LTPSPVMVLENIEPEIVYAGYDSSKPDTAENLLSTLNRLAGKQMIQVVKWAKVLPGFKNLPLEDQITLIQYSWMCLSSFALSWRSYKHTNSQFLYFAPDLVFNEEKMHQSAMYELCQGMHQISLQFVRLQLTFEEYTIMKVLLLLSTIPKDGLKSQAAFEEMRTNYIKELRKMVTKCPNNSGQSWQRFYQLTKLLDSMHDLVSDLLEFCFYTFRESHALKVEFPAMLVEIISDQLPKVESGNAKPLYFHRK
Experiment: Cellular in vitro assay to determine the inhibitory MR activity (GAL4-MR chimera, luciferase reporter, CHO K1 cells)
Type: cell-based
Settings: recombinant CHO K1 cells, GAL4-MR ligand-binding domain chimera, agonist aldosterone, luciferase readout
Description: 1. Cellular In Vitro Assay to Determine the Inhibitory MR Activity and MR Selectivity Compared with other Steroid Hormone Receptors
Antagonists of the human mineralocorticoid receptor (MR) are identified, and the activity of the compounds described herein is quantified with the aid of a recombinant cell line. The cell is originally derived from a hamster ovary epithelial cell (Chinese Hamster Ovary, CHO K1, ATCC: American Type Culture Collection, VA 20108, USA).
An established chimera system in which the ligand-binding domains of human steroid hormone receptors are fused to the DNA-binding domain of the yeast transcription factor GAL4 is used in this CHO K1 cell line. The GAL4-steroid hormone receptor chimeras produced in this way are cotransfected and stably expressed with a reporter construct in the CHO cells.
To generate the GAL4-steroid hormone receptor chimeras, the GAL4 DNA binding domain (amino acids 1-147) from the vector pFC2-dbd (from Stratagene) is cloned with the PCR-amplified ligand-binding domains of the mineralocorticoid receptor (MR, amino acids 734-985), of the glucocorticoid receptor (GR, amino acids 443-777), of the progesterone receptor (PR, amino acids 680-933) and of the androgen receptor (AR, amino acids 667-919) into the vector pIRES2 (from Clontech). The reporter construct, which comprises five copies of the GAL4 binding site upstream of a thymidine kinase promoter, leads to expression of firefly-luciferase (Photinus pyralis) after activation and binding of the GAL4-steroid hormone receptor chimeras by the respective specific agonists aldosterone (MR), dexamethasone (GR), progesterone (PR) and dihydrotestosterone (AR).
The MR, GR, PR and AR cells are plated out in medium (Optimem, 2.5% FCS, 2 mM glutamine, 10 mM HEPES) in 96- (or 384- or 1536-) well microtiter plates on the day before the assay and are kept in a cell incubator (96% humidity, 5% v/v CO2, 37° C.). On the day of the assay, the substances to be tested are taken up in the abovementioned medium and added to the cells. About 10 to 30 minutes after addition of the test substances, the respective specific agonists of the steroid hormone receptors are added. After a further incubation time of 5 to 6 hours, the luciferase activity is measured with the aid of a video camera. The measured relative light units as a function of the substance concentration result in a sigmoidal stimulation curve. The IC50 values are calculated with the aid of the GraphPad PRISM computer program (Version 3.02).

Row | IC50 [nM] | SMILES
1 | 273 | CCOc1nccc2c1C(c1cccc3c(=O)cc(C)oc13)C(C#N)=C(C)N2 (stereo not drawn) [Example 4, 5-Ethoxy-2-methyl-4-(2-methyl-4-oxo-4H-chromen-8-yl)-1,4-dihydro-1,6-naphthyridine-3-carbo-nitrite]
2 | 75 | CCS(=O)(=O)Oc1nccc2c1C(c1cccc3c(=O)cc(C)oc13)C(C(C)=O)=C(C)N2 (stereo not drawn) [Example 10, 3-Acetyl-2-methyl-4-(2-methyl-4-oxo-4H-chromen-8-yl)-1,4-dihydro-1,6-naphthyridin-5-yl ethane-sulfonate]
3 | 30 | CCOc1nccc2c1C(c1ccc(C#N)cc1OC(F)(F)F)C(C(C)=O)=C(C)N2 (stereo not drawn) [Example 21, 4-(3-Acetyl-5-ethoxy-2-methyl-1,4-dihydro-1,6-naphthyridin-4-yl)-3-(trifluoromethoxy)benzonitrile]
4 | 31 | CCOc1nccc2c1C(c1ccc(C#N)cc1CC)C(C(C)=O)=C(C)N2 (stereo not drawn) [Example 24, 4-(3-Acetyl-5-ethoxy-2-methyl-1,4-dihydro-1,6-naphthyridin-4-yl)-3-ethylbenzonitrile]
5 | 87 | CCOc1nccc2c1C(c1ccc(C#N)cc1OC)C(C#N)=C(C)N2 (stereo not drawn) [Example 25, 4-(4-Cyano-2-methoxyphenyl)-5-ethoxy-2-methyl-1,4-dihydro-1,6-naphthyridine-3-carbonitrile]
6 | 4 | CCOc1nccc2c1C(c1ccc(C#N)c3ccccc13)C(C(C)=O)=C(C)N2 (stereo not drawn) [Example 32, 4-(3-Acetyl-5-ethoxy-2-methyl-1,4-dihydro-1,6-naphthyridin-4-yl)-1-naphthonitrile]
7 | 35 | CCOc1nccc2c1C(c1ccc(C#N)cc1OC)C(C#N)=C(C(F)(F)F)N2 (stereo not drawn) [Example 33, 4-(4-Cyano-2-methoxyphenyl)-5-ethoxy-2-(trifluoromethyl)-1,4-dihydro-1,6-naphthyridine-3-carbonitrile]
8 | 122 | CCOc1nc(C)cc2c1C(c1ccc(C#N)cc1OC)C(C#N)=C(C)N2 (stereo not drawn) [Example 35, 4-(4-Cyano-2-methoxyphenyl)-5-ethoxy-2,7-dimethyl-1,4-dihydro-1,6-naphthyridine-3-carbonitrile]
9 | 73 | CCOc1ncc(C)c2c1C(c1ccc(C#N)cc1OC)C(C#N)=C(C)N2 (stereo not drawn) [Example 37, 4-(4-Cyano-2-methoxyphenyl)-5-ethoxy-2,8-dimethyl-1,4-dihydro-1,6-naphthyridine-3-carbonitrile]
